Consider 43 compounds from US10532987B2, “Compounds and methods for inducing browning of white adipose tissue” (GUANGZHOU INSTITUTES OF BIOMEDICINE AND HEALTH, CHINESE …, priority 2015, dated 2020).

One assay has as its system Ucp1. The assay can be described thus: UCP1 luciferase assay (Ucp1 up-regulation in differentiated inguinal adipocytes of Ucp1-luciferase knock-in mice). It counts as cell-based. The note with it: Mus musculus, Adipocyte, 48 h; at 0.3 μM; 2 days treatment; luciferase activity; read-out: Ucp1 activation fold/corresponding concentration. On the procedure:
TEST EXAMPLE 1 UCP1 Luciferase Assay
Evaluating Compounds that Induce Ucp1 Up-Regulation
Ucp1-luciferase knock-in mice will be housed in cages and fed on standard chow diets (the detailed procedures please see reference 14). The 8-week-old mice will be killed by the cervical dislocation and put into 75% alcohol for 5 minutes. The inguinal adipose tissue will be dissected out and transferred to the three 10-cm petri dishes and washed with PBS for three times. The adipose tissue will be dissected and minced on a 10-cm petri dish for several minutes and then pipetted into 20 ml 0.1% collagenase solution in 50 ml conical tubes and digested at 37° C. for 1 hour. Next, 20 ml culture medium will be added to terminate the digestion and centrifuged for 10 minutes at 1000 rpm respectively. The supernatants will be removed and the pellets re-suspended in 10 mL culture medium and plated into 10-cm plates. The cells will be left to adhere to the plates overnight and the culture medium will be changed every other day. The confluent cells will be trypsinized, counted and plated to 24-well plate (5×10^4 cells/well). The cells will be washed and re-fed the next day (as day −2). Two days later (day 0), the cells will usually become confluent and be induced to differentiate with MDIR medium. On day 2, the medium will be changed to IR medium and re-fed every 2 days. Complete differentiation is usually achieved by day 10. On day 10, the medium will be changed to the culture medium of 10% FBS/DMEM with indicated drugs along with the positive and negative controls for 2 days. The media will be removed and the cells washed with 1 ml PBS per well three times. Then 100 μl lysis buffer will be used to lyse the cells at 4° C. for 1 hour. 30 μl culture medium, 30 μl cell lysates and 60 μl Steady-Glo® Reagent were added to a well of 96-well-plate and the luminescence will be measured using a luminometer. The protein concentration will be determined using 20 μl cell lysates and specific activity of luciferase will be tabulated and data analyzed.
Turning to `c1ccc(Nc2nc(-c3c[nH]c4ccccc34)cs2)nc1` [Compound 7, 4-(1H-indol-3-yl)-N-(pyridin-2-yl)thiazol-2-amine], the fold induction at 0.3 µM worked out at 1.2.
Same read-out and setting: the figure for `COc1ccc(-c2csc(Nc3ccccn3)n2)c(OC)c1` [Compound 15, 4-(2,4-dimethoxyphenyl)-N-(pyridin-2-yl)thiazol-2-amine] is 1.4; for `COc1ccc(-c2csc(NC(C)=O)n2)cc1OC` [Compound 29, N-(4-(3,4-dimethoxyphenyl)thiazol-2-yl)acetamide] it is 1.2; for `O=C(O)COc1ccc(-c2csc(Nc3ccccn3)n2)cc1` [Compound 45, 2-(4-(2-(pyridin-2-ylamino)thiazol-4-yl)phenoxy)acetic acid] it is 1.3.

The assay is the same for the next values; noted with them: Mus musculus, Adipocyte, 48 h; at 1 μM; 2 days treatment; luciferase activity; read-out: Ucp1 activation fold/corresponding concentration.
On to `COc1ccc(-c2csc(Nc3cc(C)ccn3)n2)cc1OC` [Compound 2, 4-(3,4-dimethoxyphenyl)-N-(4-methylpyridin-2-yl)thiazol-2-amine], for which the fold induction at 1 µM was 1.1.
For `COc1cccc(-c2csc(Nc3ccccn3)n2)c1` [Compound 3, 4-(3-methoxyphenyl)-N-(pyridin-2-yl)thiazol-2-amine], the fold induction at 1 µM was found to be 2.8.
Still for that read-out and setting: the figure for `COc1ccc(-c2csc(Nc3cc4ccccc4cn3)n2)cc1OC` [Compound 6, 4-(3,4-dimethoxyphenyl)-N-(isoquinolin-3-yl)thiazol-2-amine] is 1.2; for `c1ccc(Nc2nc(-c3cccnc3)cs2)nc1` [Compound 9, N-(pyridin-2-yl)-4-(pyridin-3-yl)thiazol-2-amine] it is 3.6.
Regarding `COc1ccc(-c2csc(Nc3ccc(C)cn3)n2)cc1OC` [Compound 11, 4-(3,4-dimethoxyphenyl)-N-(5-methylpyridin-2-yl)thiazol-2-amine], the fold induction at 1 µM was 2.
Still for that read-out and setting: the figure for `COc1ccc(-c2csc(Nc3ncccc3C)n2)cc1OC` [Compound 12, 4-(3,4-dimethoxyphenyl)-N-(3-methylpyridin-2-yl)thiazol-2-amine] is 1.2.
Same read-out and setting: the figure for `COc1cc(-c2csc(Nc3ccccn3)n2)cc(OC)c1OC` [Compound 17, N-(pyridin-2-yl)-4-(3,4,5-trimethoxyphenyl)thiazol-2-amine] is 1.9.
Still for that read-out and setting: the figure for `COc1ccc(-c2nc(Nc3ccccn3)sc2C)cc1OC` [Compound 19, 4-(3,4-dimethoxyphenyl)-5-methyl-N-(pyridin-2-yl)thiazol-2-amine] is 1.6; for `Fc1ccc(-c2csc(Nc3ccccn3)n2)cc1` [Compound 22, 4-(4-fluorophenyl)-N-(pyridin-2-yl)thiazol-2-amine] it is 3.9; for `c1ccc(Nc2nc(-c3ccccn3)cs2)nc1` [Compound 27, N,4-di(pyridin-2-yl)thiazol-2-amine] it is 3.3.
Take `COc1ccc(-c2csc(NC(=O)c3ccccc3)n2)cc1OC` [Compound 30, N-(4-(3,4-dimethoxyphenyl)thiazol-2-yl)benzamide]: the fold induction at 1 µM came to 1.1.
Same read-out and setting: the figure for `CNc1nc(-c2ccc(OC)c(OC)c2)cs1` [Compound 31, 4-(3,4-dimethoxyphenyl)-N-methylthiazol-2-amine] is 1.1; for `O=[N+]([O-])c1ccc(-c2csc(Nc3ccccn3)n2)cc1` [Compound 34, 4-(4-nitrophenyl)-N-(pyridin-2-yl)thiazol-2-amine] it is 3.8; for `Nc1ccc(-c2csc(Nc3ccccn3)n2)cc1` [Compound 35, 4-(4-aminophenyl)-N-(pyridin-2-yl)thiazol-2-amine] it is 3.7.
The same measure, in the same setting: the figure for `CC(=O)Nc1ccc(-c2csc(Nc3ccccn3)n2)cc1` [Compound 36, N-(4-(2-(pyridin-2-ylamino)thiazol-4-yl)phenyl)acetamide] is 3.8; for `CCCC(=O)Nc1ccc(-c2csc(Nc3ccccn3)n2)cc1` [Compound 39, N-(4-(2-(pyridin-2-ylamino)thiazol-4-yl)phenyl)butyramide] it is 3.4; for `Oc1ccc(-c2csc(Nc3ccccn3)n2)cc1` [Compound 41, 4-(2-(pyridin-2-ylamino)thiazol-4-yl)phenol] it is 3.3.
Same read-out and setting: the figure for `CC(C)Oc1ccc(-c2csc(Nc3ccccn3)n2)cc1` [Compound 42, 4-(4-isopropoxyphenyl)-N-(pyridin-2-yl)thiazol-2-amine] is 2; for `CCCCOc1ccc(-c2csc(Nc3ccccn3)n2)cc1` [Compound 43, 4-(4-butoxyphenyl)-N-(pyridin-2-yl)thiazol-2-amine] it is 2.8.

The same assay, now with this note: Mus musculus, Adipocyte, 48 h; at 3 μM; 2 days treatment; luciferase activity; read-out: Ucp1 activation fold/corresponding concentration.
On to `c1ccc(-c2csc(Nc3ccccn3)n2)cc1` [Compound 4, 4-phenyl-N-(pyridin-2-yl)thiazol-2-amine], for which the fold induction at 3 µM worked out at 4.1.
Same read-out and setting: the figure for `N#Cc1cccc(-c2csc(Nc3ccccn3)n2)c1` [Compound 5, 3-(2-(pyridin-2-ylamino)thiazol-4-yl)benzonitrile] is 5.4.
Still for that read-out and setting: the figure for `COc1ccc(-c2csc(Nc3cccc(C)n3)n2)cc1OC` [Compound 10, 4-(3,4-dimethoxyphenyl)-N-(6-methylpyridin-2-yl)thiazol-2-amine] is 3.8.
Regarding `COc1ccc(-c2csc(Nc3cc(Cl)ccn3)n2)cc1OC` [Compound 13, N-(4-chloropyridin-2-yl)-4-(3,4-dimethoxyphenyl)thiazol-2-amine], the fold induction at 3 µM worked out at 1.6.
`COc1ccc(-c2csc(Nc3nc4ccc(C)cc4s3)n2)cc1OC` [Compound 14, N-(4-(3,4-dimethoxyphenyl)thiazol-2-yl)-6-methylbenzo[d]thiazol-2-amine]: the fold induction at 3 µM amounted to 2.4.
On the same count and under the same terms, the figure for `CN(C)c1ccc(-c2csc(Nc3ccccn3)n2)cc1` [Compound 16, 4-(4-(dimethylamino)phenyl)-N-(pyridin-2-yl)thiazol-2-amine] is 5.1.
Still for that read-out and setting: the figure for `COc1cc(OC)cc(-c2csc(Nc3ccccn3)n2)c1` [Compound 18, 4-(3,5-dimethoxyphenyl)-N-(pyridin-2-yl)thiazol-2-amine] is 5.3; for `COc1ccc(-c2csc(Nc3ccccc3)n2)cc1OC` [Compound 20, 4-(3,4-dimethoxyphenyl)-N-phenylthiazol-2-amine] it is 3.
On to `Cc1ccc(-c2csc(Nc3ccccn3)n2)cc1` [Compound 21, N-(pyridin-2-yl)-4-p-tolylthiazol-2-amine], for which the fold induction at 3 µM turned out to be 2.9.
On the same count and under the same terms, the figure for `FC(F)(F)Oc1ccc(-c2csc(Nc3ccccn3)n2)cc1` [Compound 23, N-(pyridin-2-yl)-4-(4-(trifluoromethoxy)phenyl)thiazol-2-amine] is 4; for `COc1ccccc1-c1csc(Nc2ccccn2)n1` [Compound 24, 4-(2-methoxyphenyl)-N-(pyridin-2-yl)thiazol-2-amine] it is 2.7.
As for `COc1cc(Br)ccc1-c1csc(Nc2ccccn2)n1` [Compound 25, 4-(4-bromo-2-methoxyphenyl)-N-(pyridin-2-yl)thiazol-2-amine], the fold induction at 3 µM is 1.3.
Still for that read-out and setting: the figure for `c1ccc(Nc2nc(-c3ccncc3)cs2)nc1` [Compound 26, N-(pyridin-2-yl)-4-(pyridin-4-yl)thiazol-2-amine] is 3.5.
The same measure, in the same setting: the figure for `Brc1cc(N2CCOCC2)ccc1-c1csc(Nc2ccccn2)n1` [Compound 28, 4-(2-bromo-4-morpholinophenyl)-N-(pyridin-2-yl)thiazol-2-amine] is 3.2; for `COc1ccc(-c2csc(NC(=O)c3ccccn3)n2)cc1OC` [Compound 32, N-(4-(3,4-dimethoxyphenyl)thiazol-2-yl)picolinamide] it is 2.6; for `COc1ccc(-c2csc(Nc3cccnc3)n2)cc1OC` [Compound 33, 4-(3,4-dimethoxyphenyl)-N-(pyridin-3-yl)thiazol-2-amine] it is 2.
The same measure, in the same setting: the figure for `CC(C)NC(=O)Nc1ccc(-c2csc(Nc3ccccn3)n2)cc1` [Compound 37, 1-isopropyl-3-(4-(2-(pyridin-2-ylamino)thiazol-4-yl)phenyl)urea] is 2; for `CCC(=O)Nc1ccc(-c2csc(Nc3ccccn3)n2)cc1` [Compound 38, N-(4-(2-(pyridin-2-ylamino)thiazol-4-yl)phenyl)propionamide] it is 5.
As for `Brc1ccc(-c2csc(Nc3ccccn3)n2)cc1` [Compound 40, 4-(4-bromophenyl)-N-(pyridin-2-yl)thiazol-2-amine], the fold induction at 3 µM was determined as 3.
Same read-out and setting: the figure for `CCOC(=O)COc1ccc(-c2csc(Nc3ccccn3)n2)cc1` [Compound 44, ethyl 2-(4-(2-(pyridin-2-ylamino)thiazol-4-yl)phenoxy)acetate] is 1.9.
